Experimental data: patent US20110104161A1, “COMBINATIONS VEGF(R) INHIBITORS AND HEPATOCYTE GROWTH FACTOR (C-MET) INHIBITORS FOR THE TREATMENT OF CANCER” (priority 2008, published 2011)

Columns and labels:
[1] = tested on: U-87 MG human glioblastoma tumor cells; test: U-87 MG glioblastoma subcutaneous xenograft tumor growth in nude mice (Example 2); format: in vivo
Description: U-87 MG human glioblastoma tumor cells (from ATCC) were expanded in culture, harvested and injected subcutaneously into 5-8 week old female nude mice (CD1 NU/NU, Charles River Laboratories) (n=10/group). Treatment began on day 14 (average tumor volume 200 mm^3) with a VEGFR inhibitor, AMG 706, by oral gavage (75 mg/kg/dose/once per day) or an HGF/SF:c-Met inhibitor, AMG 102 by intraperitoneal injection, (3 or 10 μg/dose/twice per week) or a combination of AMG 706 and AMG 102 at the same doses and schedules. Vehicle alone (acid water pH 2.0) and IgG2 isotype control antibody (30 μg/dose/twice per week) served as negative controls for the VEFGFR inhibitor and the HGF/SF:c-Met inhibitor, respectively. Progression of tumor growth was followed by three dimensional caliper measurements and recorded as a function of time. Initial statistical analysis was done by repeated measures analysis of variance (ANOVA), followed by Scheffé post hoc testing for multiple comparisons. […] The combination of AMG 706 and AMG 102 provided no additional benefit compared to AMG 102 monotherapy. Body weights were not negatively impacted by any treatment. Arrow and Rx denote start of dosing.

[2] = tested on: 786-0 human renal cell adenocarcinoma cells; test: 786-0-S4 renal cell adenocarcinoma subcutaneous xenograft tumor growth in athymic nude mice (Example 7); format: in vivo; conditions: AMG 706 75 mpk/dose PO, Amgen Compound 3 100 mpk/dose PO, or combination, once daily; p≦0.0322 (AMG 706, combination), p=0.0519 (Amgen Compound 3)
Text: 786-0-S4 (786-0 human renal cell adenocarcinoma cells from ATCC that were passaged in vivo) were expanded in culture, harvested and injected subcutaneously into 9 week old female athymic nude mice (Harlan Sprague Dawley) (n=10/group). Administration of the VEGFR inhibitor, AMG 706 (75 mpk/dose, PO), or the c-Met inhibitor, Amgen Compound 3 (100 mpk/dose, PO), or a combination of AMG 706 (75 mpk/dose, PO) and Amgen Compound 3 (100 mpk/dose, PO) began on day 20 post tumor cell implantation. AMG 706 was subsequently administered once daily by oral gavage (75 mpk/dose) and Amgen Compound 3 was administered once daily by oral gavage (100 mpk/dose) for the duration of the experiment. Progression of tumor growth was assessed by three dimensional caliper measurements and recorded as a function of time. Statistical analysis was performed by repeated measures analysis of variance (RMANOVA) followed by Scheffe post hoc testing for multiple comparisons. Vehicles (Acid water (pH 2.2) and 2% HPMC 1% Tween 80) served as negative controls for AMG 706 and Amgen Compound 3, respectively. […] Body weights were not negatively impacted by any treatment. Arrow and Rx denote the start of dosing.

Molecule	tumor growth compared with vehicle control group ([1]; AMG 706 75 mg/kg once per day oral gavage)	tumor growth compared to the vehicle [2]	tumor growth compared to the isotype control group ([1]; AMG 102 3 or 10 μg per dose twice per week i.p., p<0.0005)
CC1(C)CNc2cc(NC(=O)c3cccnc3NCc3ccncc3)ccc21 [AMG 706, N-(2,3-dihydro-3,3-dimethyl-1H-indol-6-yl)-2-[(4-pyridinylmethyl)amino]-3-pyridinecarboxamide]	no significant effect on tumor growth	significantly inhibited tumor growth	–
Cc1c(C(=O)Nc2ccc(Oc3ccnc(NC(=O)N4CCOCC4)c3)c(F)c2)c(=O)n(-c2ccccc2)n1C [Amgen Compound 3, N-(4-(4-(1,5-dimethyl-3-oxo-2-phenyl-2,3-dihydro-1H-pyrazole-4-carboxamido)-2-fluorophenoxy)pyridin-2-yl)morpholine-4-carboxamide]	–	did not significantly inhibit tumor growth	–
AMG 102: anti-HGF/SF antibody, identified in US 2005/0118643 and WO 2005/017107 as antibody 2.12.1	–	–	significantly inhibited tumor growth
